Patent US20030064954A1, “Cationic amphiphilic 1,4-dihydropyridine derivatives useful for delivery of nucleotide containing compounds” (priority 2000, published 2003)

Experiments:
plasmid DNA = assay: DNA condensation/complexation, EtBr displacement assay; type: binding
Outline: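 Plasmid DNA (0.6 μg/well) was mixed with 0.002% EtBr in 20 mM HEPES–150 mM NaCl pH 7.4, then cationic liposomes were added at various +/− charge ratios.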

D 407 cells = assay: Cytotoxicity of amphiphile/DNA complexes, percentage of survived cells; type: cell-based, human; parameters: concentration or dose not given beside the values
[1] = system: D407 (human retinal pigment epithelial) cells; assay: In vitro transfection of plasmid DNA, β-galactosidase activity per well; type: cell-based; conditions: D 407
[2] = system: CV-1P (African monkey green kidney fibroblasts cells); assay: as above; type: cell-based; conditions: CVI-P; for transfection, result in words: entry spans the charge ratios 8-0.5
Outline: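 CV-1P cells (20 000/well) given compound/DNA complexes at various charge ratios, prepared in 50 mM MES–50 mM HEPES–75 mM NaCl pH 7.2, 0.6 μg DNA/well, for 5 h at 37 °C, then 45 h in growth medium. Lysates assayed for β-galactosidase via oNPG hydrolysis at 405 nm against an E. coli enzyme standard; efficiency expressed as percent of Lipofectin.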

CVI-P cells = assay: Cytotoxicity of amphiphile/DNA complexes, percentage of survived cells
[3] = amphiphile/DNA +/− charge ratio 0.5
[4] = amphiphile/DNA +/− charge ratio 1
[5] = amphiphile/DNA +/− charge ratio 2
[6] = amphiphile/DNA +/− charge ratio 4
[7] = amphiphile/DNA +/− charge ratio 8

Row | SMILES | complexation, percentage of the maximum fluorescence signal when EtBr bound to DNA in the absence of an amphiphile (plasmid DNA; [3]) | complexation, percentage of the maximum fluorescence signal when EtBr bound to DNA in the absence of an amphiphile (plasmid DNA; [4]) | complexation, percentage of the maximum fluorescence signal when EtBr bound to DNA in the absence of an amphiphile (plasmid DNA; [5]) | complexation, percentage of the maximum fluorescence signal when EtBr bound to DNA in the absence of an amphiphile (plasmid DNA; [6]) | complexation, percentage of the maximum fluorescence signal when EtBr bound to DNA in the absence of an amphiphile (plasmid DNA; [7]) | cytotoxicity as a percentage of survived cells (D 407 cells; [3]) | cytotoxicity as a percentage of survived cells (D 407 cells; [4]) | cytotoxicity as a percentage of survived cells (D 407 cells; [5]) | cytotoxicity as a percentage of survived cells (D 407 cells; [6]) | cytotoxicity as a percentage of survived cells (D 407 cells; [7]) | transfection efficiency [1, 4] | transfection efficiency [1, 5] | transfection efficiency [1, 6] | transfection efficiency [1, 7] | cytotoxicity as a percentage of survived cells (CVI-P cells; [3]) | cytotoxicity as a percentage of survived cells (CVI-P cells; [4]) | cytotoxicity as a percentage of survived cells (CVI-P cells; [5]) | cytotoxicity as a percentage of survived cells (CVI-P cells; [6]) | cytotoxicity as a percentage of survived cells (CVI-P cells; [7]) | melting point | also measured
1 | CCCCCCCCCCCCCCCC(=O)OCCOC(=O)C1=C(C)NC(C)=C(C(=O)OCCOC(=O)CCCCCCCCCCCCCCC)C1c1ccc[n+](C)c1.I.[I-] [I, 1′,4′-Dihydro-1,2′,6′-trimethyl-3′,5′-bis[(2-palmitoyloxyethoxy)carbonyl]-3,4′-bipyridinium iodide] | 89,4% | 87,2% | 84,4% | 78,3% | 73,35% | 90,43% | 80,92% | 51,14% | 31,39% | 26,92% | 20,04 β-galactosidase units per well | 5,72 β-galactosidase units per well | 0,89 β-galactosidase units per well | 0,88 β-galactosidase units per well | 94,43% | 94,83% | 91,92% | 78,43% | 70,75% | 105 to 107 °C | transfection efficiency [1, 3]: 0,83 β-galactosidase units per well; transfection efficiency [2, 3]: 0,26 β-galactosidase units per well; transfection efficiency [2, 4]: 7,72 β-galactosidase units per well; transfection efficiency [2, 5]: 2,89 β-galactosidase units per well; transfection efficiency [2, 6]: 0,73 β-galactosidase units per well; transfection efficiency [2, 7]: 0,78 β-galactosidase units per well
2 | CCCCCCCCCCCCCCCCOC(=O)C1=C(C)NC(C)=C(C(=O)OCCCCCCCCCCCCCCCC)C1c1ccc[n+](C)c1.I.[I-] [VII, 3′,5′-Bis(hexadecyloxycarbonyl)-1′,4′-dihydro-1,2′,6′-trimethyl-3,4′-bipyridinium iodide] | 90,6% | 86,95% | 83,11% | 79,25% | 77,6% | 95,82% | 84,83% | 62,61% | 55,53% | 51,38% | 0,82 β-galactosidase units per well | 1,37 β-galactosidase units per well | 0,98 β-galactosidase units per well | 0,63 β-galactosidase units per well | 102,34% | 97,03% | 103,62% | 99,84% | 88,71% | 112 to 113 °C (dec.) | transfection efficiency [2, 3]: 0,73 β-galactosidase units per well; transfection efficiency [2, 4]: 0,39 β-galactosidase units per well; transfection efficiency [2, 5]: 2,2 β-galactosidase units per well; transfection efficiency [2, 6]: 0,81 β-galactosidase units per well; transfection efficiency [2, 7]: 0,61 β-galactosidase units per well
3 | Br.CCCCCCCCCCCCCCCC[n+]1cccc(C2C(C(=O)OCCCCCCCCCCCCCC)=C(C)NC(C)=C2C(=O)OCCCCCCCCCCCCCC)c1.[Br-] [XVII, 1-Hexadecyl-1′,4′-dihydro-2′,6′-dimethyl-3′,5′-bis(tetradecyloxycarbonyl)-3,4′-bipyridinium bromide] | 104,4% | 97,9% | 95,1% | 97% | 96,5% | – | – | – | – | – | – | – | – | – | 105,14% | 85,31% | 88,20% | 67,45% | 97,34% | 133 to 135 °C | transfection, result in words [2]: No signal
4 | CCCCCCCCCCCCCCOC(=O)C1=C(C)NC(C)=C(C(=O)OCCCCCCCCCCCCCC)C1c1ccc[n+](C)c1.I.[I-] [VI, 1′,4′-Dihydro-1,2′,6′-trimethyl-3′,5′-bis(tetradecyloxycarbonyl)-3,4′-bipyridinium iodide] | 93,25% | 84,75% | 78,9% | 74,85% | 71,05% | 98,6% | 94,43% | 79,12% | 12,13% | 5,11% | 16,56 β-galactosidase units per well | 35,6 β-galactosidase units per well | 1,21 β-galactosidase units per well | 1,08 β-galactosidase units per well | 94,05% | 89,46% | 90,38% | 45,6% | 7,52% | 114 to 115 °C | transfection efficiency [1, 3]: 0,53 β-galactosidase units per well; transfection efficiency [2, 3]: 0,81 β-galactosidase units per well; transfection efficiency [2, 4]: 0,82 β-galactosidase units per well; transfection efficiency [2, 5]: 4,82 β-galactosidase units per well; transfection efficiency [2, 6]: 2,16 β-galactosidase units per well; transfection efficiency [2, 7]: 1,27 β-galactosidase units per well
5 | CCCCCCCCCCCCCCCCOC(=O)C1=C(C)NC(C)=C(C(=O)OCCCCCCCCCCCCCCCC)C1c1ccc[n+](CC(N)=O)c1.I.[I-] [XX, 1-Carbamoylmethyl-3′,5′-bis(hexadecyloxycarbonyl)-1′,4′-dihydro-2′,6′-dimethyl-3,4′-bipyridinium iodide] | 88,0% | 81,94% | 76,4% | 71,5% | 66,31% | – | – | – | – | – | – | – | – | – | 100,59% | 110,76% | 59,96% | 71,98% | 92,09% | 140 to 141 °C (dec.) | transfection, result in words [2]: No signal
